This note sets out measurements from US9796733B2, “Imidazo-pyrazine derivatives useful as soluble guanylate cyclase activators” (Merck Sharp & Dohme Corp., priority 2014, dated 2017).

The target in one assay is T1, sGC α1/β1 heterodimer (Homo sapiens, UniProt Q02108+Q02153).
T1 construct: expressed in transfected cells; host or cells: CHO-K1 (clone #7, CHO-K1/sGC)
T1 sequence (Q02108 1-690): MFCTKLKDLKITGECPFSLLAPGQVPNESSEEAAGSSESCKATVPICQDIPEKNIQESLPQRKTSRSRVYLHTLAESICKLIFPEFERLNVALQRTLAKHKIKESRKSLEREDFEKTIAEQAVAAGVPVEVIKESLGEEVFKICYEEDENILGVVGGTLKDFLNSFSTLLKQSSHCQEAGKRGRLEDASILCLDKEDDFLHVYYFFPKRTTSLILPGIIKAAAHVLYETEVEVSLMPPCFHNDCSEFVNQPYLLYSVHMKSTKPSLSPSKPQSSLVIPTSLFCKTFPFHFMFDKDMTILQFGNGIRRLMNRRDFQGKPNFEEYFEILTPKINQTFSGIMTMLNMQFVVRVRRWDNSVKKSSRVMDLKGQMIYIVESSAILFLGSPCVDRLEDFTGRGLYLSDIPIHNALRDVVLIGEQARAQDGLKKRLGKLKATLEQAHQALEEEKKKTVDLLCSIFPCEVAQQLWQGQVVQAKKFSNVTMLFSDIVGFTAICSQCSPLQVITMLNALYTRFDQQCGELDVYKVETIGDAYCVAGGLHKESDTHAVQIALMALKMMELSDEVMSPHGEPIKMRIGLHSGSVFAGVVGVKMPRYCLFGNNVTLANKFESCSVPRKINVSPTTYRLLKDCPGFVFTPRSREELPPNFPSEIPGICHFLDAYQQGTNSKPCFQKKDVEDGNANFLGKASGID
T1 sequence (Q02153 1-619): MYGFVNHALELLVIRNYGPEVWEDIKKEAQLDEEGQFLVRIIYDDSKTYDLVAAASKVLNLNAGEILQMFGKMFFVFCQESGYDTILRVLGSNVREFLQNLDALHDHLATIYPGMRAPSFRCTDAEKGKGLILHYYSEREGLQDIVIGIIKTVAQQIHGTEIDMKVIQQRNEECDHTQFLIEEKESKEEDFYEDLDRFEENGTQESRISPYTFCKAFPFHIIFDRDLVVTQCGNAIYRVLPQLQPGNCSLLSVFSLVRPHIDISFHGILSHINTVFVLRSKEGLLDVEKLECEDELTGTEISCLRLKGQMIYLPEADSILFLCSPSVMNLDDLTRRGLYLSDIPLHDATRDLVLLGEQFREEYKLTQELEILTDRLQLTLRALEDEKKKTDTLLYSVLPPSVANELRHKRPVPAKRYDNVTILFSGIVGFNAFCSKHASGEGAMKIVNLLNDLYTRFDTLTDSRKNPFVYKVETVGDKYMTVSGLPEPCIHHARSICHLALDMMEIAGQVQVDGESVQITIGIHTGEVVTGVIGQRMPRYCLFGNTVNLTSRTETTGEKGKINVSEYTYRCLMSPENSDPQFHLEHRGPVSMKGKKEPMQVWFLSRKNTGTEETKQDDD
Put plainly: Cell-based sGC functional assay (CASA assay): cGMP generation in CHO-K1/sGC cells, HTRF detection. To be noted: for Emax: CHO-K1, percent activation relative to standard Compound A in CHO-K1/sGC cells, read-out: % Act.; for EC50: inflection point (IP) of cGMP generation in CHO-K1/sGC cells, 4P fit, activity expressed as percentage of Compound A. The essentials: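 Stable CHO-K1/sGC cells in EBSS buffer with 5 mM MgCl2, 0.05% BSA and 0.5 mM IBMX were incubated with compound (2.5% DMSO final) ±1 μM DETA-NO for 1 hr at 37° C. cGMP was measured by HTRF. Activation is expressed as % of reference HDA Compound A maximum, with IP and max fold induction from a 4P fit.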
A general note: In TR-FRET formats the signal depends on donor and acceptor labels being close together.

The test system of assay [1] is Spontaneously hypertensive rats (SHR). The assay can be described thus: Acute efficacy in spontaneously hypertensive rats (SHR): telemetry blood pressure lowering after a single oral dose. Type of assay: in vivo, rat. The essentials:
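Male SHR carrying aortic telemetry implants (14-day recovery) received a single oral gavage of compound or vehicle (10% transcutol/20% Cremophor/70% water). Conscious blood pressure was sampled 30 s every 10 min and averaged hourly; change was taken against the prior-day vehicle baseline, reported as maximum peak SBP decrease at a given PO dose (mpk).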

Turning to `Nc1nc(-c2cn3ccnc3c(CCC(F)(F)F)n2)nc2c1C(c1ccc(F)c(F)c1)(C1CC1)C(=O)N2` (stereo not drawn) [Example 318A, 4-amino-5-cyclopropyl-5-(3,4-difluorophenyl)-2-(8-(3,3,3-trifluoropropyl)imidazo[1,2-a]pyrazin-6-yl)-5H-pyrrolo[2,3-d]pyrimidin-6(7H)-one], at sGC α1/β1 heterodimer, the Emax was determined as 127% and the EC50 (commonly the concentration needed to bring the measured effect to its halfway point) amounted to 2.18 µM. Also, the “Maximum peak decrease of systolic blood pressure (SBP) in SHR, Cat.” value (“Maximum peak decrease” below) in assay [1] (P.O. 2.0 mpk) is given as “A (Category A=SBP in SHRs<20 mmHg)”.
`CCCc1nc(-c2nc(N)c3c(n2)NC(=O)C3(c2ccc(Cl)c(F)c2)C2CC2)cn2ccnc12` (stereo not drawn) [Example 327A, 4-amino-5-(4-chloro-3-fluorophenyl)-5-cyclopropyl-2-(8-propylimidazo[1,2-a]pyrazin-6-yl)-5H-pyrrolo[2,3-d]pyrimidin-6(7H)-one]: at sGC α1/β1 heterodimer, the Emax worked out at 112% and a half-maximal effect (EC50) was put at 0.134 µM. Moreover, the “Maximum peak decrease” value in assay [1] (P.O. 1.0 mpk) is “A (Category A=SBP in SHRs<20 mmHg)”.
For `Nc1nc(-c2cn3ccnc3c(CCC(F)(F)F)n2)nc2c1C(c1ccc(OC(F)(F)F)cc1)(C1CC1)C(=O)N2` (stereo not drawn) [Example 328A, 4-amino-5-cyclopropyl-5-(4-(trifluoromethoxy)phenyl)-2-(8-(3,3,3-trifluoropropyl)imidazo[1,2-a]pyrazin-6-yl)-5H-pyrrolo[2,3-d]pyrimidin-6(7H)-one], at sGC α1/β1 heterodimer, the Emax was 106% and the EC50 amounted to 1.04 µM. Besides, the “Maximum peak decrease” value in assay [1] (P.O. 3.0 mpk) is listed as “A (Category A=SBP in SHRs<20 mmHg)”.
With `CCCCc1nc(-c2nc(N)c3c(n2)NC(=O)C3(c2ccc(Cl)c(F)c2)C2CC2)cn2ccnc12` (stereo not drawn) [Example 329A, 4-amino-2-(8-butylimidazo[1,2-a]pyrazin-6-yl)-5-(4-chloro-3-fluorophenyl)-5-cyclopropyl-5H-pyrrolo[2,3-d]pyrimidin-6(7H)-one], on sGC α1/β1 heterodimer, the Emax stood at 93% and the EC50 turned out to be 0.016 µM. For the same compound, the “Maximum peak decrease” value in assay [1] (P.O. 0.3 mpk) is listed as “B (Category B=SBP in SHRs 20-40 mmHg)”.
Take `CCCCc1nc(-c2nc(N)c3c(n2)NC(=O)C3(c2ccc(F)c(F)c2)C2CC2)cn2ccnc12` (stereo not drawn) [Example 330A, 4-amino-2-(8-butylimidazo[1,2-a]pyrazin-6-yl)-5-cyclopropyl-5-(3,4-difluorophenyl)-5H-pyrrolo[2,3-d]pyrimidin-6(7H)-one]: on sGC α1/β1 heterodimer, the Emax is 142% and the response was half-maximal at 0.022 µM (EC50). Besides, in assay [1] (P.O. 0.3 mpk), the “Maximum peak decrease” value is reported as “B (Category B=SBP in SHRs 20-40 mmHg)”.
On to `CCCCc1nc(-c2nc(N)c3c(n2)NC(=O)C3(c2ccc(Cl)cc2)C2CC2)cn2ccnc12` (stereo not drawn) [Example 332B, 4-amino-2-(8-butylimidazo[1,2-a]pyrazin-6-yl)-5-(4-chlorophenyl)-5-cyclopropyl-5H-pyrrolo[2,3-d]pyrimidin-6(7H)-one], for which, at sGC α1/β1 heterodimer, the Emax was 141% and the EC50 was 0.03 µM. For the same compound, the “Maximum peak decrease” value in assay [1] (P.O. 0.3 mpk) is “B (Category B=SBP in SHRs 20-40 mmHg)”.
As for `CCCc1nc(-c2nc(N)c3c(n2)NC(=O)C3(c2ccc(F)c(F)c2)C2CC2)cn2ccnc12` (stereo not drawn) [Example 334A, 4-amino-5-cyclopropyl-5-(3,4-difluorophenyl)-2-(8-propylimidazo[1,2-a]pyrazin-6-yl)-5H-pyrrolo[2,3-d]pyrimidin-6(7H)-one], at sGC α1/β1 heterodimer, the Emax turned out to be 111% and the EC50 worked out at 0.278 µM. The “Maximum peak decrease” value in assay [1] (P.O. 3.0 mpk) is on record as “A (Category A=SBP in SHRs<20 mmHg)”.
For `CC(C)Cc1nc(-c2nc(N)c3c(n2)NC(=O)C3(c2ccc(F)c(F)c2)C2CC2)cn2ccnc12` (stereo not drawn) [Example 335A, 4-amino-5-cyclopropyl-5-(3,4-difluorophenyl)-2-(8-isobutylimidazo[1,2-a]pyrazin-6-yl)-5H-pyrrolo[2,3-d]pyrimidin-6(7H)-one], in that order: 140%, 0.303 µM and “B (Category B=SBP in SHRs 20-40 mmHg)”.
As for `CCCCc1nc(-c2nc(N)c3c(n2)NC(=O)C3(c2ccc(Cl)cn2)C2CC2)cn2ccnc12` (stereo not drawn) [Example 336B, 4-amino-2-(8-butylimidazo[1,2-a]pyrazin-6-yl)-5-(5-chloropyridin-2-yl)-5-cyclopropyl-5H-pyrrolo[2,3-d]pyrimidin-6(7H)-one], on sGC α1/β1 heterodimer, the Emax stood at 131% and the EC50 was 0.022 µM. The “Maximum peak decrease” value in assay [1] (P.O. 0.3 mpk) is “B (Category B=SBP in SHRs 20-40 mmHg)”.
`Nc1nc(-c2cn3ccnc3c(CCC(F)(F)F)n2)nc2c1C(c1ccc(Cl)cc1F)(C1CC1)C(=O)N2` (stereo not drawn) [Example 338A, 4-amino-5-(4-chloro-2-fluorophenyl)-5-cyclopropyl-2-(8-(3,3,3-trifluoropropyl)imidazo[1,2-a]pyrazin-6-yl)-5H-pyrrolo[2,3-d]pyrimidin-6(7H)-one]: at sGC α1/β1 heterodimer, the Emax was 158% and the EC50 worked out at 0.178 µM. Moreover, in assay [1] (P.O. 2.0 mpk), the “Maximum peak decrease” value is reported as “B (Category B=SBP in SHRs 20-40 mmHg)”.
Turning to `Nc1nc(-c2cn3ccnc3c(CCCC(F)(F)F)n2)nc2c1C(c1ccc(Cl)cc1F)(C1CC1)C(=O)N2` (stereo not drawn) [Example 339A, 4-amino-5-(4-chloro-2-fluorophenyl)-5-cyclopropyl-2-(8-(4,4,4-trifluorobutyl)imidazo[1,2-a]pyrazin-6-yl)-5H-pyrrolo[2,3-d]pyrimidin-6(7H)-one], at sGC α1/β1 heterodimer, the Emax stood at 325% and the EC50 amounted to 0.122 µM. Besides, the “Maximum peak decrease” value in assay [1] (P.O. 0.3 mpk) was “B (Category B=SBP in SHRs 20-40 mmHg)”.
For `CCCCc1nc(-c2nc(N)c3c(n2)NC(=O)C3(c2ccc(OC(F)(F)F)cc2)C2CC2)cn2ccnc12` (stereo not drawn) [Example 346A], at sGC α1/β1 heterodimer, the Emax came out at 132% and the EC50 was found to be 0.065 µM. The “Maximum peak decrease” value in assay [1] (P.O. 1.0 mpk) is on record as “B (Category B=SBP in SHRs 20-40 mmHg)”.
Take `Nc1nc(-c2cn3ccnc3c(CCCC(F)(F)F)n2)nc2c1C(c1ccc(OC(F)(F)F)cc1)(C1CC1)C(=O)N2` (stereo not drawn) [Example 347A, 4-amino-5-cyclopropyl-2-(8-(4,4,4-trifluorobutyl)imidazo[1,2-a]pyrazin-6-yl)-5-(4-(trifluoromethoxy)phenyl)-5H-pyrrolo[2,3-d]pyrimidin-6(7H)-one]: on sGC α1/β1 heterodimer, the Emax came to 107% and the response was half-maximal at 0.131 µM (EC50). In addition, the “Maximum peak decrease” value in assay [1] (P.O. 1.0 mpk) is on record as “B (Category B=SBP in SHRs 20-40 mmHg)”.
On to `Nc1nc(-c2cn3ccnc3c(CCC(F)(F)C(F)(F)F)n2)nc2c1C(c1ncc(Cl)cn1)(C1CC1)C(=O)N2` (stereo not drawn) [Example 349A, 4-amino-5-(5-chloropyrimidin-2-yl)-5-cyclopropyl-2-(8-(3,3,4,4,4-pentafluorobutyl)imidazo[1,2-a]pyrazin-6-yl)-5H-pyrrolo[2,3-d]pyrimidin-6(7H)-one], for which, at sGC α1/β1 heterodimer, the Emax was determined as 107% and the EC50 was 0.213 µM. In addition, in assay [1] (P.O. 2.0 mpk), the “Maximum peak decrease” value is reported as “B (Category B=SBP in SHRs 20-40 mmHg)”.
In the case of `Nc1nc(-c2cn3ccnc3c(CCC(F)(F)C(F)(F)F)n2)nc2c1C(c1cncc(F)c1)(C1CC1)C(=O)N2` (stereo not drawn) [Example 353B, 4-amino-5-cyclopropyl-5-(5-fluoropyridin-3-yl)-2-(8-(3,3,4,4,4-pentafluorobutyl)imidazo[1,2-a]pyrazin-6-yl)-5H-pyrrolo[2,3-d]pyrimidin-6(7H)-one], on sGC α1/β1 heterodimer, the Emax came to 168% and the midpoint of the response, the EC50, lay at 1.03 µM. The “Maximum peak decrease” value in assay [1] (P.O. 3.0 mpk) is on record as “A (Category A=SBP in SHRs<20 mmHg)”.
